In ChEMBL document CHEMBL1201862, “PubChem BioAssay data set” (2004):
The source made the active and inactive calls.

Legend:
[1] = loss of viability in HepG2 cells – cell-based, CellTiter-Glo, cherry-picked, cytotoxicity control for Shn3 inhibitor project, dose response (AID 624134); format: functional
[2] = biological target: 1-phosphatidylinositol 4,5-bisphosphate phosphodiesterase beta-3 (Homo sapiens, UniProt Q01970); experiment: Fluorescence-based biochemical high throughput dose response assay to identify inhibitors of phospholipase C isozymes (PLC-B3).
Sequence of 1-phosphatidylinositol 4,5-bisphosphate phosphodiesterase beta-3 (Q01970 whole entry): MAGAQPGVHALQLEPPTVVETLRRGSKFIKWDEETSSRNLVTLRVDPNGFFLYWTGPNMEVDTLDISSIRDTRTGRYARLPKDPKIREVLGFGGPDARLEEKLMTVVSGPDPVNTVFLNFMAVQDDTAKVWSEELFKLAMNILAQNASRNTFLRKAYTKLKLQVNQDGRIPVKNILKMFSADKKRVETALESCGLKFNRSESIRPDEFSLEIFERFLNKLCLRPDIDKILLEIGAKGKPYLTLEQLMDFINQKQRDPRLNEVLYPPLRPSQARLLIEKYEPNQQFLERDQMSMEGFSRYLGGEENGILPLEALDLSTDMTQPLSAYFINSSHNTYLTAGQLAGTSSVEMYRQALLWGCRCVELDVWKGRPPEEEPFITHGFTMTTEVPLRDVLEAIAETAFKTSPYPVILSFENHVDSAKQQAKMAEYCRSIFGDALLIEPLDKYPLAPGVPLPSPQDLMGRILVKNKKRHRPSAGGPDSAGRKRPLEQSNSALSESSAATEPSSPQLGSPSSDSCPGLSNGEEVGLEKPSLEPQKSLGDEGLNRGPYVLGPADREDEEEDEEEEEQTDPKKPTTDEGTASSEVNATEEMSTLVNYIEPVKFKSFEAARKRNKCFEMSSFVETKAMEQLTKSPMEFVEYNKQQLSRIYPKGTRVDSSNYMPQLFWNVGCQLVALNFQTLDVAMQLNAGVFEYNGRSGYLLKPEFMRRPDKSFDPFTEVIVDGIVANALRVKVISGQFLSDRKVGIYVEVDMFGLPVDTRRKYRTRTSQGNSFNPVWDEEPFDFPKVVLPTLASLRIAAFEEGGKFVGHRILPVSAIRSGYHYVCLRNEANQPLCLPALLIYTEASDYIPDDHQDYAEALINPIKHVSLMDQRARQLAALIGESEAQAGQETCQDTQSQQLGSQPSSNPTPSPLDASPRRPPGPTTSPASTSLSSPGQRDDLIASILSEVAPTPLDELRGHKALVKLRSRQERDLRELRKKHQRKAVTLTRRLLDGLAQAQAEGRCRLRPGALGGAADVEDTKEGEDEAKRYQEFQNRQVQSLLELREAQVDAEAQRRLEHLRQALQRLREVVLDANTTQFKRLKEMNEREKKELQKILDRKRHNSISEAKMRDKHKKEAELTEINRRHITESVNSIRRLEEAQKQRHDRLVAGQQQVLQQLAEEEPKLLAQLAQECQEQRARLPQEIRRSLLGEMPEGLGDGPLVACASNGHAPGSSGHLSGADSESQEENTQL

[3] = non-specific 3'UTR reporter inhibition in Clone20-Shn3RL – cell-based, Renilla luciferase, cherry-picked, counter-screen for Shn3 inhibitor project, dose response (AID 624133); format: functional
[4] = reduction of Shn3 3'UTR-driven luciferase in osteoblasts – cell-based, Clone20 osteoblasts, firefly luciferase, cherry-picked, dose response (AID 624132); format: functional;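 further: firefly luciferase luminescence from reporter carrying the Shn3 3'UTR in osteoblasts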
HEK293 [5] = experiment: cells; format: functional, cell-based; settings: Homo sapiens
HEK293 [6] = experiment: cells; format: functional, cell-based; settings: Homo sapiens; remark: listed apart in the source
[7] = A549 cell cytotoxicity, dose response, cytotoxicity control, plate reader, cherry-pick, antagonist series (AID 743412); format: functional, cell-based
[8] = biological target: Nucleotide-binding oligomerization domain-containing protein 2 (Homo sapiens, UniProt Q9HC29); experiment: inhibition of NOD2-driven NF-kB reporter – cell-based, luminescence, uHTS, HEK293 (AID 1566); format: functional
[9] = blockade of melanocortin 4 receptor signaling – cell-based, plate reader, cherry pick, counter-screen for LGR2 antagonist project, dose response (AID 743444); format: functional;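 further: transfected HEK 293 cells stimulated with alpha-MSH peptide; potency of inhibitors of the alpha-MSH evoked signal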
[10] = toxicity toward HepG2 liver cells – cell-based, plate reader, cherry-pick, antagonist series, cytotoxicity control, dose response (AID 743416); format: functional
HEK293 [11] = experiment: NOD2 signaling inhibitors in MDP-stimulated cells, cell-based, uHTS, luminescence (AID 2001); format: functional; settings: Homo sapiens
[12] = viability loss in HEK293 cells – cell-based, plate reader, cherry-picked samples, cytotoxicity control, dose response (AID 743446); format: functional
[13] = biological target: 1-phosphatidylinositol 4,5-bisphosphate phosphodiesterase gamma-1 (Homo sapiens, UniProt P19174); experiment: Counterscreen for inhibitors of phospholipase C isozymes (PLC-B3): Fluorescence-based biochemical high throughput dose response assay to identify inhibitors of phospholipase C isozymes (PLC-gamma1).
Sequence of 1-phosphatidylinositol 4,5-bisphosphate phosphodiesterase gamma-1 (P19174 whole entry): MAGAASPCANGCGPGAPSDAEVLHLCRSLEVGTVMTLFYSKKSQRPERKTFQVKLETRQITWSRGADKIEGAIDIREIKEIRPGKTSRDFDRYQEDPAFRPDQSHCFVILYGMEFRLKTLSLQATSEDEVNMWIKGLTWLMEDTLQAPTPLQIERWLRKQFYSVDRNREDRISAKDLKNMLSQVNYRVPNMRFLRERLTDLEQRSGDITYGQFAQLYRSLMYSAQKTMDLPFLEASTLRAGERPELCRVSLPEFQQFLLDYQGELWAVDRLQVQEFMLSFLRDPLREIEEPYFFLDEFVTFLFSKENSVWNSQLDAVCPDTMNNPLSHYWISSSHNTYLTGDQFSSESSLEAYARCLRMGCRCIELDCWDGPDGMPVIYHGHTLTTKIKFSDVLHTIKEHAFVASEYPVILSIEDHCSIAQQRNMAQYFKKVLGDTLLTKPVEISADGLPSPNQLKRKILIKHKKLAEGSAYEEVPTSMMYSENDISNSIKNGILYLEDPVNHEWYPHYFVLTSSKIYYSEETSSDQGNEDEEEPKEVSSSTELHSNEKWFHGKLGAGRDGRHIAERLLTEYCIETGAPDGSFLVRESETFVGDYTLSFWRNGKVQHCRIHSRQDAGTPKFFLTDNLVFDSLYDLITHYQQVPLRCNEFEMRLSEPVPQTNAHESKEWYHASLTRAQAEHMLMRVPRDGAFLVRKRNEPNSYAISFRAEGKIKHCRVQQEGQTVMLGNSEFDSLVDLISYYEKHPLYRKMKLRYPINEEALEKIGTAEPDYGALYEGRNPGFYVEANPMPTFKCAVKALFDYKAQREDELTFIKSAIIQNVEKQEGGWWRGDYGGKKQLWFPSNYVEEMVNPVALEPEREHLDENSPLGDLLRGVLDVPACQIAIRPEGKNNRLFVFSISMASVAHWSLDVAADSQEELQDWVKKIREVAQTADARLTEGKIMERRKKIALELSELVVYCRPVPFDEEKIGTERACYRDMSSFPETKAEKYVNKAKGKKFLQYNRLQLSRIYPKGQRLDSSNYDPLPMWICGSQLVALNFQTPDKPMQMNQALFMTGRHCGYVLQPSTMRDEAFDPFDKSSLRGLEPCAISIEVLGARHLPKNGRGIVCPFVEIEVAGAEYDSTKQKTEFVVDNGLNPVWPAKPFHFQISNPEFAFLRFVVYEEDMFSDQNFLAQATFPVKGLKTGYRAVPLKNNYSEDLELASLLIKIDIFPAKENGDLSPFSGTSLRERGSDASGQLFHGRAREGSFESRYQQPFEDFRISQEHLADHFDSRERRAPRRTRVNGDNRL

HEK293 [14] = experiment: inhibition of NOD1-driven NF-kB reporter – cell-based, luminescence, uHTS, primary screen (AID 1578); format: functional; settings: Homo sapiens
[15] = biological target: Neurotensin receptor type 1 (Homo sapiens, UniProt P30989); format: functional;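 further: Image-based confirmatory dose-response assay measuring agonist activity at NTR1; NTR1-expressing U2OS osteosarcoma cells imaged for beta-arrestin GFP spot formation; agonist potency where compounds increase beta-arrestin recruitment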
Sequence of Neurotensin receptor type 1 (P30989 whole entry): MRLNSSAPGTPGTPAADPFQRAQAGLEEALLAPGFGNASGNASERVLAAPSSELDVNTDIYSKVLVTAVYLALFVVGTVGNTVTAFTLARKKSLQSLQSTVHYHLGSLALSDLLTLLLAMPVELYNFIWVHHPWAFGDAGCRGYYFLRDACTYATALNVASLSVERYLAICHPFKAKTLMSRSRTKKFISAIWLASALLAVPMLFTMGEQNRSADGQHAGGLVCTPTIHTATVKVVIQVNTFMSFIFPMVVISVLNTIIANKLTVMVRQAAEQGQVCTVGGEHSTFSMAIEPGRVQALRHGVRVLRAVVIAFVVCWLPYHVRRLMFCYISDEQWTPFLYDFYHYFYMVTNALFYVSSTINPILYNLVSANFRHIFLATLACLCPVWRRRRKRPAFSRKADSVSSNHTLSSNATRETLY

[16] = blockers of bursicon-stimulated LGR2 cAMP reporter – cell-based, HEK293, CRE-luciferase reporter, cherry pick, set 2, dose response (AID 743343); format: functional;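 further: transfected cells were stimulated with diluted bursicon conditioned medium after compound addition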
HEK293 [17] = experiment: cells; format: functional, cell-based; settings: Homo sapiens; remark: listed apart in the source
[18] = Trypanosoma cruzi growth suppression in host cells – NIH3T3 host cells, beta-gal luminescence, confirmation (AID 2044); format: functional, cell-based;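 further: intracellular parasites grown in NIH/3T3 mouse fibroblasts as host cells; luminescent beta-galactosidase reporter signal from transgenic T. cruzi replicating inside host cells; inhibitors lower the luminescence signal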
[19] = biological target: T1, Disintegrin and metalloproteinase domain-containing protein 17 (Homo sapiens, UniProt P78536); experiment: exosite inhibitors of ADAM17, dose response, biochemical (AID 743260)
T1 sequence (P78536 whole entry, the tested form may be a part): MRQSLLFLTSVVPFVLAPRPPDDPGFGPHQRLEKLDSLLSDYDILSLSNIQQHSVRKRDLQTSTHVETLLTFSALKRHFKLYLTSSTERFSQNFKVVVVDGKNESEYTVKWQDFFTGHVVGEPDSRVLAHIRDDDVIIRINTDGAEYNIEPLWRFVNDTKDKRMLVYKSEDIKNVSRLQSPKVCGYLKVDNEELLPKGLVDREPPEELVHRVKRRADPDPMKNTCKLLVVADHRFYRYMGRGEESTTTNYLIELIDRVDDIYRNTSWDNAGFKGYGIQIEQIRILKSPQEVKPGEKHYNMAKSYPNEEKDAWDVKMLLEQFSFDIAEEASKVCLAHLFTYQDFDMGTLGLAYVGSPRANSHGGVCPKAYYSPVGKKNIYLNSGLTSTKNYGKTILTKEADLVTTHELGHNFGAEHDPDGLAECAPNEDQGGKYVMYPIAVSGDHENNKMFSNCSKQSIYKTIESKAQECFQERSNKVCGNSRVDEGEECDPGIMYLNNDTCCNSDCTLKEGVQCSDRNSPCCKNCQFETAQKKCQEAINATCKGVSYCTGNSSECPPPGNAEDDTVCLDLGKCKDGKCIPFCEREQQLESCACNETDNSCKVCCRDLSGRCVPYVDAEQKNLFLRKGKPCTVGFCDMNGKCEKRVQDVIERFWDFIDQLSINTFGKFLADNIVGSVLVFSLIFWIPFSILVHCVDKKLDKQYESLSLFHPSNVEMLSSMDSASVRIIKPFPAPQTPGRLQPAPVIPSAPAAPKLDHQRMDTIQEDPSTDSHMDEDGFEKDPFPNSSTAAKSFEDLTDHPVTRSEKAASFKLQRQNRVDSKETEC

[20] = inhibition of ADAM10 peptide cleavage – biochemical, FRET peptide substrate, recombinant human ADAM10, selectivity assay for ADAM17 exosite inhibitor project, dose response (AID 743259);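 further: ADAM10 enzyme cleaving a FRET peptide substrate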
[21] = NIH3T3 cell viability loss – ATP luminescence, mouse fibroblasts, counter-screen, dose response (AID 2010); format: functional, cell-based;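 further: cells exposed to compound for about 90 hours before reading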
[22] = A Cell-Based Confirmatory Screen for Compounds that Inhibit VEEV, TC-83 (3).; format: functional
[23] = biological target: NAD-dependent protein deacylase sirtuin-5, mitochondrial (Homo sapiens, UniProt Q9NXA8); experiment: sirtuin-5 deacylation blockers, concentration series – biochemical, fluorescence imaging, cherry-pick, set 5, dose response (AID 720591);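 further: desuccinylation of succinyl peptide AMC substrate read as fluorescence after trypsin release; potency of inhibitors that lower fluorescence and may act on trypsin instead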
Sequence of NAD-dependent protein deacylase sirtuin-5, mitochondrial (Q9NXA8 whole entry): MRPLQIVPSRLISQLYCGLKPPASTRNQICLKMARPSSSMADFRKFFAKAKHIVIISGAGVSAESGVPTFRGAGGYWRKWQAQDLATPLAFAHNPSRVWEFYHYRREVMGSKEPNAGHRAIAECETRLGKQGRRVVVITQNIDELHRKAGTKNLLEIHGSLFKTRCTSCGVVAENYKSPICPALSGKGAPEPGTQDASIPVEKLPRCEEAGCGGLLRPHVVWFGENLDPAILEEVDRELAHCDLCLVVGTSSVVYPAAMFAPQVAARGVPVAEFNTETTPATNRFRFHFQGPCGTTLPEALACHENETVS

[24] = Luminescence Cell-Based Dose Retest to Confirm Inhibitors of Cancer Stem Cells. [Related pubchem assays (depositor defined):AID2717, AID2721]; format: functional; settings: Homo sapiens
Streptokinase A = biological target: T2, Streptokinase A (Streptococcus pyogenes serotype M1, UniProt P10520); experiment: viability-normalized secreted streptokinase activity reduction – plasminogen activation absorbance, OD405, dose response (AID 1914); format: functional, Streptococcus pyogenes M1 GAS;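 further: secreted streptokinase activity via plasminogen activation per viability signal from cell pellet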
T2 sequence (P10520 whole entry): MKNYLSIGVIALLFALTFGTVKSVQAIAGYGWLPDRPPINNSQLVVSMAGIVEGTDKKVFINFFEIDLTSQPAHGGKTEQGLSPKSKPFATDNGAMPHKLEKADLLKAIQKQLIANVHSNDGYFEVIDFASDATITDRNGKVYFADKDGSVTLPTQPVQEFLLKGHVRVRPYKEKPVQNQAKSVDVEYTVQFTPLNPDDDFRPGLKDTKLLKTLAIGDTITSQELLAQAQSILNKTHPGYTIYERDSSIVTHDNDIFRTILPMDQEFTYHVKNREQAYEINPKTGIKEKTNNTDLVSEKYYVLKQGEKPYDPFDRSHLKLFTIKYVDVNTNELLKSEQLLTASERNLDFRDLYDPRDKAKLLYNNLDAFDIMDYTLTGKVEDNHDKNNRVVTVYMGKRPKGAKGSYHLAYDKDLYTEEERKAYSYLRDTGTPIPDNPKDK

Streptococcus = experiment: GAS UMAA2166 growth inhibition – luminescence, BacTiterGlo, counter-screen for streptokinase expression inhibitor project, dose response (AID 1915); format: functional, organism-based;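 further: potency for reduction of bacterial viability or growth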
[25] = biological target: T1, Disintegrin and metalloproteinase domain-containing protein 17; experiment: inhibition of ADAM17 substrate cleavage – biochemical, quenched FRET substrate, counter-screen for ADAM10 exosite inhibitor project, dose response (AID 743253)
[26] = tested on: Streptococcus sp. 'group A'; experiment: Streptococcus pyogenes SK(-)GAS viability under kanamycin – luminescence, BacTiterGlo, confirmation, counter-screen for streptokinase expression inhibitor project, dose response (AID 1900); format: functional, organism-based
[27] = biological target: Nuclear receptor subfamily 0 group B member 1 (Homo sapiens, UniProt P51843); format: functional, cell-based;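 further: HEK293T cells transfected with SF-1 and DAX-1 plus StAR promoter luciferase reporter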
Sequence of Nuclear receptor subfamily 0 group B member 1 (P51843 whole entry): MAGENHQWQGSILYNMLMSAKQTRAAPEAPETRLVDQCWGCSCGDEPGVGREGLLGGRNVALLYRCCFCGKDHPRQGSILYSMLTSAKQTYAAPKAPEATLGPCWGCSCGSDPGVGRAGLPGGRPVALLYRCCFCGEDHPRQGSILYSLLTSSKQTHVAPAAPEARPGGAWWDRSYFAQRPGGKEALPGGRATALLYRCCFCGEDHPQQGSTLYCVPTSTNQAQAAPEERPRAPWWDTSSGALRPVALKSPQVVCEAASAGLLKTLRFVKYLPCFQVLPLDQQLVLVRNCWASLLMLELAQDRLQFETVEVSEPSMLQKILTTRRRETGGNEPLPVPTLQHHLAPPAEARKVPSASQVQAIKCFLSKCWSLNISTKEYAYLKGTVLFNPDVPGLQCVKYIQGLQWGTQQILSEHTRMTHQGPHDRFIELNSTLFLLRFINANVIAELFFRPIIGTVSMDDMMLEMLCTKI

cells = format: functional, cell-based
[28] = biological target: T3, Scavenger receptor class B member 1 (Mus musculus, UniProt Q61009); experiment: mouse SR-BI DiI-HDL transfer blockers – ldlA[mSR-BI] CHO cells, fluorescence plate reader, dry powder, set 9, dose response (AID 623880); format: functional, cell-based
T3 sequence (Q61009 whole entry): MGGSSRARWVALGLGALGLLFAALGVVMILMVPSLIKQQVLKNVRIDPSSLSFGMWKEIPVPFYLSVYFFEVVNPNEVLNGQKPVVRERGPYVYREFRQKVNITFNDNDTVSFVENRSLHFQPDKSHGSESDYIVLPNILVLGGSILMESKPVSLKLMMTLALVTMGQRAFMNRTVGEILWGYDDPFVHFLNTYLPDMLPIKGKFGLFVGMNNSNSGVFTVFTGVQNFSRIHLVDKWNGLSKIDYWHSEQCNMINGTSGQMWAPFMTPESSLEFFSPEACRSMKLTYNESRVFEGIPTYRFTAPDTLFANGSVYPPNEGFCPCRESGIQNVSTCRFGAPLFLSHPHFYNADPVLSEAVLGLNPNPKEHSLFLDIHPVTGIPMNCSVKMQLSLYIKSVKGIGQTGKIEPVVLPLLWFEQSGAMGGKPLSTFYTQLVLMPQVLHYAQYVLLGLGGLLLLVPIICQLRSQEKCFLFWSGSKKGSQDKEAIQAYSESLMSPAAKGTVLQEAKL

[29] = biological target: T3, Scavenger receptor class B member 1; experiment: blockers of DiI-HDL lipid transfer via SR-BI – cell-based, ldlA[mSR-BI] CHO, DiI fluorescence, dry powder, set 10, dose response (AID 624029); format: functional
Cryptococcus neoformans = experiment: PubChem AID 686997; format: functional, organism-based
HEK293 [30] = experiment: viability loss in HEK293T cells – cell-based, ATP luminescence, cherry-pick samples, cytotoxicity control, dose response (AID 687005); format: functional; settings: Homo sapiens;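 further: cells exposed to compound for 48 hours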
[31] = HEK293 Cytotoxicity Assay Measured in Cell-Based System Using Plate Reader - 7071-01_Inhibitor_Dose_CherryPick_Activity_Set2.; format: functional
HeLa = experiment: viability loss in HeLa cells – cell-based, ATP luminescence, cherry-pick samples, cytotoxicity control, dose response (AID 687004); format: functional; settings: Homo sapiens

## CN(C(=O)COc1ccccc1C(=O)NCCOc1ccccc1)c1ccccc1
[1]
  AC50: 51.9 µM (active)
[2]
  IC50: > 122 µM (inactive)
[3]
  AC50: 4.23 µM (active)
[4]
  AC50: 1.57 µM (active)
HEK293 [5]
  IC50: 11.2 µM (active)
HEK293 [6]
  IC50: 3.42 µM (active)
[7]
  AC50: 20.8 µM (active)
[8]
  EC50: 7.78 µM (active)
[9]
  AC50: 11.2 µM (active)
[10]
  AC50: 32.7 µM (active)
HEK293 [11]
  IC50: 4.32 µM (active)
[12]
  AC50: 15.9 µM (active)
[13]
  IC50: > 122 µM (inactive)
HEK293 [14]
  EC50: 5.76 µM (active)
[15]
  EC50: 17.9 µM (active)
[16]
  AC50: 12.8 µM (active)
HEK293 [17]
  IC50: 3.82 µM (active)

## COC(=O)C1=C(c2cc3ccccc3s2)C[C@@H]2CC[C@H]1N2C(=O)NCc1ccc(C(F)(F)F)cc1
[18]
  EC50: 3.12 µM (active)
[19]
  IC50: > 69.5 µM (inactive)
[20]
  IC50: > 7.72 µM (active)
[21]
  EC50: 8.21 µM (active)

## O=c1c2cc([N+](=O)[O-])ccc2nc(CN2CCOCC2)n1-c1ccccc1F
[22]
  IC50: 9.6 µM (active)

## CCn1ccnc1CN(C)C(=O)CC1C(=O)NCCN1Cc1c(F)cccc1Cl (stereo unspecified)
[23]
  AC50: > 30 µM (inactive)

## Oc1ccc(Cl)cc1-c1cc(-c2cccc(Br)c2)[nH]n1
[24]
  AC50: 5.22 µM (active)
Streptokinase A
  EC50: > 150 µM (not active)
Streptococcus
  EC50: 6.65 µM (active)
[25]
  IC50: > 69.5 µM (inactive)
[26]
  EC50: 5.6 µM (active)

## CC(=O)Nc1ccc(-c2ccnc3c2CC(C(=O)NCc2ccco2)O3)cc1 (stereo unspecified)
[27]
  IC50: > 67.5 µM (inactive)
cells
  IC50: > 67.5 µM (inactive)

## C[C@@H]1CN([C@H](C)CO)C(=O)c2cc(NC(=O)C3CCOCC3)ccc2O[C@H]1CN(C)S(=O)(=O)c1ccc(Cl)cc1
[28]
  AC50: 34.2 µM (active)
[29]
  AC50: 34.8 µM (active)

## COC(=O)C1=C(C)N(Cc2ccc(Cl)cc2)C(=S)NC1c1cccc(OC)c1 (stereo unspecified)
Cryptococcus neoformans
  AC50: 57.5 µM (active)
HEK293 [30]
  AC50: 11.4 µM (active)
[31]
  AC50: 11.4 µM (active)
HeLa
  AC50: > 52 µM (inactive)
